Measured values as given in paper PMC11530689, “Anti colorectal cancer activity and in silico studies of novel pyridine nortopsentin analog as cyclin dependent kinase 6 inhibitor” (Scientific Reports, 2024).

How the values were obtained:
Assay in all cases: NCI 60 cell line screen
NCI/ADR-RES = type: cell-based; details: Ovarian Cancer, single concentration 10^−5 M
Experimental: (§1) The cytotoxic activity of nortopsintin analogs (4a-4j) was determined by the national cancer institute (NCI, Bethesda, Maryland, USA) against 60 different cancer cell lines at a single concentration of (10^-5 M). For the determination of IC50 value, we used MTT assay kit (Sigma) according to the manufacturer's protocol. HCT-116 cells were seeded into a 96-well plate at a concentration of 20,000 cells/well. After 24 h, the media was aspirated and replaced with serum-free media containing serial dilutions of the 4i compound. […] The percentage of cytotoxicity was calculated using the following equation: % Cytotoxicity = [1 - ([…])] × 100.

ACHN = type: cell-based; details: Renal Cancer, single concentration 10^−5 M
Experimental: as §1

NCI-H460 = type: cell-based; details: NCI-H460, Non-Small Cell Lung Cancer; single concentration 10^−5 M
Experimental: as §1

NCI-H226 = type: cell-based; details: NCI-H226, Non-Small Cell Lung Cancer; single concentration 10^−5 M
Experimental: as §1

HT29 = type: cell-based; details: HT29, Colon Cancer; single concentration 10^−5 M
Experimental: as §1

SF-539 = type: cell-based; details: SF-539, CNS Cancer; single concentration 10^−5 M
Experimental: as §1

OVCAR-4 = type: cell-based; details: OVCAR-4, Ovarian Cancer; single concentration 10^−5 M
Experimental: as §1

SR = type: cell-based; details: Leukemia, single concentration 10^−5 M
Experimental: as §1

PC-3 = type: cell-based; details: PC-3, Prostate Cancer; single concentration 10^−5 M
Experimental: as §1

CAKI-1 = type: cell-based; details: CAKI-1, Renal Cancer; single concentration 10^−5 M
Experimental: as §1

OVCAR-8 = type: cell-based; details: OVCAR-8, Ovarian Cancer; single concentration 10^−5 M
Experimental: as §1

K-562 = type: cell-based; details: K-562, Leukemia; single concentration 10^−5 M
Experimental: as §1

SK-MEL-2 = type: cell-based; details: SK-MEL-2, Melanoma; single concentration 10^−5 M
Experimental: as §1

RPMI-8226 = type: cell-based; details: RPMI-8226, Leukemia; single concentration 10^−5 M
Experimental: as §1

SK-MEL-5 = type: cell-based; details: SK-MEL-5, Melanoma; single concentration 10^−5 M
Experimental: as §1

SW-620 = type: cell-based; details: SW-620, Colon Cancer; single concentration 10^−5 M
Experimental: as §1

DU-145 = type: cell-based; details: DU-145, Prostate Cancer; single concentration 10^−5 M
Experimental: as §1

NCI-H322M = type: cell-based; details: Non-Small Cell Lung Cancer, single concentration 10^−5 M
Experimental: as §1

HS 578T = type: cell-based; details: Breast Cancer, single concentration 10^−5 M
Experimental: as §1

UACC-62 = type: cell-based; details: UACC-62, Melanoma; single concentration 10^−5 M
Experimental: as §1

KM12 = type: cell-based; details: KM12, Colon Cancer; single concentration 10^−5 M
Experimental: as §1

T-47D = type: cell-based; details: Breast Cancer, single concentration 10^−5 M
Experimental: as §1

HOP-92 = type: cell-based; details: HOP-92, Non-Small Cell Lung Cancer; single concentration 10^−5 M
Experimental: as §1

A498 = type: cell-based; details: A498, Renal Cancer; single concentration 10^−5 M
Experimental: as §1

RXF 393 = type: cell-based; details: RXF 393, Renal Cancer; single concentration 10^−5 M
Experimental: as §1

MDA-MB-231/ATCC = type: cell-based; details: Breast Cancer, single concentration 10^−5 M
Experimental: as §1

786-0 = type: cell-based; details: 786-0, Renal Cancer; single concentration 10^−5 M
Experimental: as §1

U251 = type: cell-based; details: U251, CNS Cancer; single concentration 10^−5 M
Experimental: as §1

NCI-H23 = type: cell-based; details: NCI-H23, Non-Small Cell Lung Cancer; single concentration 10^−5 M
Experimental: as §1

TK-10 = type: cell-based; details: TK-10, Renal Cancer; single concentration 10^−5 M
Experimental: as §1

A549/ATCC = type: cell-based; details: Non-Small Cell Lung Cancer, single concentration 10^−5 M
Experimental: as §1

HCT-15 = type: cell-based; details: HCT-15, Colon Cancer; single concentration 10^−5 M
Experimental: as §1

CCRF-CEM = type: cell-based; details: Leukemia, single concentration 10^−5 M
Experimental: as §1

BT-549 = type: cell-based; details: BT-549, Breast Cancer; single concentration 10^−5 M
Experimental: as §1

UACC-257 = type: cell-based; details: UACC-257, Melanoma; single concentration 10^−5 M
Experimental: as §1

OVCAR-3 = type: cell-based; details: OVCAR-3, Ovarian Cancer; single concentration 10^−5 M
Experimental: as §1

SNB-19 = type: cell-based; details: SNB-19, CNS Cancer; single concentration 10^−5 M
Experimental: as §1

HCT-116 = type: cell-based, human; details: HCT-116, Colon Cancer; single concentration 10^−5 M
Experimental: as §1

| SMILES | Growth % (NCI/ADR-RES) [%] | Growth % (ACHN) [%] | Growth % (NCI-H460) [%] | Growth % (NCI-H226) [%] | Growth % (HT29) [%] | Growth % (SF-539) [%] | Growth % (OVCAR-4) [%] | Growth % (SR) [%] | Growth % (PC-3) [%] | Growth % (CAKI-1) [%] | Growth % (OVCAR-8) [%] | Growth % (K-562) [%] | Growth % (SK-MEL-2) [%] | Growth % (RPMI-8226) [%] | Growth % (SK-MEL-5) [%] | Growth % (SW-620) [%] | Growth % (DU-145) [%] | Growth % (NCI-H322M) [%] | Growth % (HS 578T) [%] | Growth % (UACC-62) [%] | also measured |
| --- | --- | --- | --- | --- | --- | --- | --- | --- | --- | --- | --- | --- | --- | --- | --- | --- | --- | --- | --- | --- | --- |
| COc1cc(-c2cc(-c3c[nH]c4ccccc34)nc(-c3c[nH]c4ccccc34)c2C#N)cc(OC)c1OC [4g] | 100.17 | 98.52 | 106.65 | 87.22 | 105.35 | 93.66 | 103.83 | 94.92 | 91.47 | 75.97 | 98.26 | 90.08 | 92.02 | 97.18 | 98.25 | 100.40 | 106.13 | 93.11 | 99.50 | 87.61 | Growth % (KM12): 99.69%; Growth % (T-47D): 96.11%; Growth % (HOP-92): 92.84%; Growth % (A498): 103.11%; Growth % (RXF 393): 120.31%; Growth % (MDA-MB-231/ATCC): 82.84%; Growth % (786-0): 102.99%; Growth % (U251): 100.17%; Growth % (NCI-H23): 93.03%; Growth % (TK-10): 128.09%; Growth % (A549/ATCC): 99.60%; Growth % (HCT-15): 100.84%; Growth % (CCRF-CEM): 99.17%; Growth % (BT-549): 101.50%; Growth % (UACC-257): 104.77%; Growth % (OVCAR-3): 102.73%; Growth % (SNB-19): 98.31%; Growth % (HCT-116): 104.41% |
| N#Cc1c(-c2ccc([N+](=O)[O-])cc2)cc(-c2c[nH]c3ccccc23)nc1-c1c[nH]c2ccccc12 [4h] | 96.36 | 94.69 | 100.56 | 87.03 | 111.20 | 97.59 | 99.28 | 84.51 | 93.76 | 82.68 | 98.23 | 94.26 | 96.75 | 95.92 | 97.67 | 105.72 | 103.04 | 95.29 | 94.79 | 85.82 | Growth % (KM12): 98.09%; Growth % (T-47D): 88.78%; Growth % (HOP-92): 98.33%; Growth % (A498): 99.31%; Growth % (RXF 393): 111.16%; Growth % (MDA-MB-231/ATCC): 96.84%; Growth % (786-0): 106.06%; Growth % (U251): 99.87%; Growth % (NCI-H23): 97.26%; Growth % (TK-10): 142.08%; Growth % (A549/ATCC): 96.38%; Growth % (HCT-15): 99.04%; Growth % (CCRF-CEM): 103.06%; Growth % (BT-549): 108.68%; Growth % (UACC-257): 104.66%; Growth % (OVCAR-3): 97.76%; Growth % (SNB-19): 100.62%; Growth % (HCT-116): 100.64% |
| CN(C)c1ccc(-c2cc(-c3c[nH]c4ccccc34)nc(-c3c[nH]c4ccccc34)c2C#N)cc1 [4i] | 90.91 | 98.60 | 60.31 | 79.62 | 63.02 | 75.80 | 95.26 | 32.38 | 89.56 | 68.37 | 96.39 | 39.74 | 102.08 | 69.39 | 96.50 | 46.63 | 99.65 | 92.92 | 104.13 | 85.78 | Growth % (KM12): 58.37%; Growth % (T-47D): 95.86%; Growth % (HOP-92): 104.62%; Growth % (A498): 98.45%; Growth % (RXF 393): 106.90%; Growth % (MDA-MB-231/ATCC): 99.81%; Growth % (786-0): 99.08%; Growth % (U251): 92.50%; Growth % (NCI-H23): 88.40%; Growth % (TK-10): 107.28%; Growth % (A549/ATCC): 89.56%; Growth % (HCT-15): 44.65%; Growth % (CCRF-CEM): 78.55%; Growth % (BT-549): 103.60%; Growth % (UACC-257): 101.12%; Growth % (OVCAR-3): 91.03%; Growth % (SNB-19): 79.65%; Growth % (HCT-116): 57.78% |
